Reference: patent US20130303532A1, “IMIDAZOPYRAZINES FOR USE AS MPS-1 AND TKK INHIBITORS IN THE TREATMENT HYPERPROLIFERATIVE DISORDERS” (BAYER INTELLECTUAL PROPERTY GmbH, priority 2010, published 2013)

The molecules below were run against T1, human kinase Mps-1 (Homo sapiens, UniProt P33981) (assay: Mps-1 kinase assay (TR-FRET)). Conditions: Mps1 IC50 [nM], N-terminally GST-tagged human full length recombinant Mps-1; 10 μM ATP; 1 μM biotinylated peptide substrate; 60 min at 22° C.
T1 construct: N-terminally GST-tagged human full length recombinant Mps-1 kinase; GST (N); purchased Invitrogen, Karslruhe, Germany PV4071
T1 sequence (P33981 1-857): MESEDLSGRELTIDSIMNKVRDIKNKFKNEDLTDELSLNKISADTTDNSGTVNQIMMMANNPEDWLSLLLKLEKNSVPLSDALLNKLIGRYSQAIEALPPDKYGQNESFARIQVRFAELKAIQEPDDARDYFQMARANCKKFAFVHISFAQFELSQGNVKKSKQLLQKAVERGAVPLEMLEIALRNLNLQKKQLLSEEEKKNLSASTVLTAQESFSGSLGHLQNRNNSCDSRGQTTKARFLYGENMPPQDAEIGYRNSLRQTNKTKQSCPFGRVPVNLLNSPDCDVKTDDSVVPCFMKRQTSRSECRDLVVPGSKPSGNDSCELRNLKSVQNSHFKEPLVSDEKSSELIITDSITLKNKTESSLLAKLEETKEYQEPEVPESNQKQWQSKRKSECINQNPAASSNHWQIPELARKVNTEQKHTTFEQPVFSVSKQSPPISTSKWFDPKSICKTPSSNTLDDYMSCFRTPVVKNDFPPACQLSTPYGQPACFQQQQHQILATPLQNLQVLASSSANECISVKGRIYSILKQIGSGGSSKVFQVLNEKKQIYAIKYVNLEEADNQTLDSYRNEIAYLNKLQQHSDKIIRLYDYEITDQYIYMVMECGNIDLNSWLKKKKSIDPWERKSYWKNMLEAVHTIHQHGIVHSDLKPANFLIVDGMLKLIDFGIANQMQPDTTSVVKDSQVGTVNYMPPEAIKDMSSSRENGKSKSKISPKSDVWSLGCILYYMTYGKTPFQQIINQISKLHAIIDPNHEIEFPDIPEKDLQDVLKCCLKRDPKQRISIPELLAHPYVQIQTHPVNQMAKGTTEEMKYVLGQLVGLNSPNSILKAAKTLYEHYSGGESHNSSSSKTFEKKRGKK
Assay type: biochemical

Row | SMILES | IC50 [nM]
1 | Cc1ccccc1CNc1nccn2c(-c3ccc(C(=O)NC4CC4)cc3)cnc12 [Example 7-15, N-cyclopropyl-4-{8-[(2-methylbenzyl)amino]imi-dazo[1,2-a]pyrazin-3-yl}benzamide] | 88.8
2 | O=C(NC1CC1)c1ccc(-c2cnc3c(NCC(O)COc4ccccc4)nccn23)cc1 (centres unmarked) [Example 7-17, N-cyclopropyl-4-{8-[(2-hydroxy-3-phenoxypropyl)amino]imi-dazo[1,2-a]pyrazin-3-yl}benzamide] | 412
3 | CC(C)(C)CNc1nccn2c(-c3ccc(C(=O)NC4CC4)cc3)cnc12 [Example 7-20, N-cyclopropyl-4-{8-[(2,2-dimethylpropyl)amino]imi-dazo[1,2-a]pyrazin-3-yl}benzamide] | 30.2
4 | Cc1ccc(CNc2nccn3c(-c4ccc(C(=O)NC5CC5)cc4)cnc23)cc1 [Example 7-22, N-cyclopropyl-4-{8-[(4-methylbenzyl)amino]imi-dazo[1,2-a]pyrazin-3-yl}benzamide] | 21
5 | O=C(NC1CC1)c1ccc(-c2cnc3c(NCCCc4ccccc4)nccn23)cc1 [Example 7-24, N-cyclopropyl-4-{8-[(3-phenylpropyl)amino]imi-dazo[1,2-a]pyrazin-3-yl}benzamide] | 90.1
6 | O=C(NC1CC1)c1ccc(-c2cnc3c(NCCCN4CCCC4=O)nccn23)cc1 [Example 7-28, N-cyclopropyl-4-(8-{[3-(2-oxopyrrolidin-1-yl)propyl]amino}imi-dazo[1,2-a]pyrazin-3-yl)benzamide] | 1270
7 | Cc1cccc(CNc2nccn3c(-c4ccc(C(=O)NC5CC5)cc4)cnc23)c1 [Example 7-29, N-cyclopropyl-4-{8-[(3-methylbenzyl)amino]imi-dazo[1,2-a]pyrazin-3-yl}benzamide] | 100
8 | O=C(NC1CC1)c1ccc(-c2cnc3c(NCc4ccc(F)cc4)nccn23)cc1 [Example 7-31, N-cyclopropyl-4-{8-[(4-fluorobenzyl)amino]imi-dazo[1,2-a]pyrazin-3-yl}benzamide] | 17.4
9 | NS(=O)(=O)CCNc1nccn2c(-c3ccc(C(=O)NC4CC4)cc3)cnc12 [Example 7-32, N-cyclopropyl-4-{8-[(2-sulfamoylethyl)amino]imi-dazo[1,2-a]pyrazin-3-yl}benzamide] | 57.2
10 | O=C(NC1CC1)c1ccc(-c2cnc3c(NCc4cccc(F)c4)nccn23)cc1Cl [Example 7-33, 2-chloro-N-cyclopropyl-4-{8-[(3-fluorobenzyl)amino]imi-dazo[1,2-a]pyrazin-3-yl}benzamide] | 200
11 | COCCNc1nccn2c(-c3ccc(C(=O)NC4CC4)c(Cl)c3)cnc12 [Example 7-36, 2-chloro-N-cyclopropyl-4-{8-[(2-methoxyethyl)amino]imi-dazo[1,2-a]pyrazin-3-yl}benzamide] | 593
12 | O=C(NC1CC1)c1ccc(-c2cnc3c(NCc4ccccc4F)nccn23)cc1Cl [Example 7-37, 2-chloro-N-cyclopropyl-4-{8-[(2-fluorobenzyl)amino]imi-dazo[1,2-a]pyrazin-3-yl}benzamide] | 93.8
13 | O=C(NC1CC1)c1ccc(-c2cnc3c(NCc4ccc(F)cc4)nccn23)cc1Cl [Example 7-38, 2-chloro-N-cyclopropyl-4-{8-[(4-fluorobenzyl)amino]imi-dazo[1,2-a]pyrazin-3-yl}benzamide] | 112
14 | O=C(NC1CC1)c1ccc(-c2cnc3c(NCCCCO)nccn23)cc1Cl [Example 7-39, 2-chloro-N-cyclopropyl-4-{8-[(4-hydroxybutyl)amino]imi-dazo[1,2-a]pyrazin-3-yl}benzamide] | 239
15 | O=C(NC1CC1)c1ccc(-c2cnc3c(NCCCO)nccn23)cc1Cl [Example 7-43, 2-chloro-N-cyclopropyl-4-{8-[(3-hydroxypropyl)amino]imi-dazo[1,2-a]pyrazin-3-yl}benzamide] | 430

Same assay, conditions: N-terminally GST-tagged human full length recombinant Mps-1; 10 μM ATP; 1 μM biotinylated peptide substrate; 60 min at 22° C.; read-out: Mps1 IC50

Row | SMILES | IC50 [nM]
16 | CC(=O)NCCNc1nccn2c(-c3ccc(C(=O)NC4CC4)cc3)cnc12 [Example 7-16, 4-(8-{[2-(acetylamino)ethyl]ami-no}imidazo[1,2-a]pyrazin-3-yl)-N-cyclopropylbenzamide] | 961
17 | O=C(NC1CC1)c1ccc(-c2cnc3c(NCc4ccc5c(c4)OCO5)nccn23)cc1 [Example 7-18, 4-{8-[(1,3-benzodioxol-5-ylmethyl)amino]imidazo[1,2-a]pyrazin-3-yl}-N-cyclopropylbenzamide] | 28.4
18 | O=C(NC1CC1)c1ccc(-c2cnc3c(NCCc4cccs4)nccn23)cc1 [Example 7-21, N-cyclopropyl-4-(8-{[2-(thiophen-2-yl)ethyl]ami-no}imidazo[1,2-a]pyrazin-3-yl)benzamide] | 42.3
19 | O=C(NC1CC1)c1ccc(-c2cnc3c(NCCc4cccnc4)nccn23)cc1 [Example 7-23, N-cyclopropyl-4-(8-{[2-(pyridin-3-yl)ethyl]amino}imidazo[1,2-a]pyrazin-3-yl)benzamide] | 244
20 | NS(=O)(=O)c1ccc(CCNc2nccn3c(-c4ccc(C(=O)NC5CC5)cc4)cnc23)cc1 [Example 7-27, N-cyclopropyl-4-(8-{[2-(4-sulfamoylphenyl)ethyl]ami-no}imidazo[1,2-a]pyrazin-3-yl)benzamide] | 97.6
21 | O=C(NC1CC1)c1ccc(-c2cnc3c(NCC4CCCO4)nccn23)cc1Cl (centres unmarked) [Example 7-34, 2-chloro-N-cyclopropyl-4-{8-[(tetrahydrofuran-2-ylmethyl)amino]imidazo[1,2-a]pyrazin-3-yl}benzamide] | 211
22 | O=C(NC1CC1)c1ccc(-c2cnc3c(NCCCN4CCCC4=O)nccn23)cc1Cl [Example 7-35, 2-chloro-N-cyclopropyl-4-(8-{[3-(2-oxopyrrolidin-1-yl)propyl]amino}imidazo[1,2-a]pyrazin-3-yl)benzamide] | 1970
23 | O=C(NC1CC1)c1ccc(-c2cnc3c(NCc4ccccc4)nccn23)cc1Cl [Example 7-40, 4-[8-(benzylamino)imidazo[1,2-a]pyrazin-3-yl]-2-chloro-N-cyclopropylbenzamide] | 64.6
24 | CCNc1nccn2c(-c3ccc(C(=O)NC4CC4)c(Cl)c3)cnc12 [Example 7-42, 2-chloro-N-cyclopropyl-4-[8-(ethylamino)imidazo[1,2-a]pyrazin-3-yl]benzamide] | 17000
25 | CCCCNc1nccn2c(-c3ccc(C(=O)NC4CC4)c(Cl)c3)cnc12 [Example 7-44, 4-[8-(butylamino)imidazo[1,2-a]pyrazin-3-yl]-2-chloro-N-cyclopropylbenzamide] | 54.2
26 | CC(=O)NCCNc1nccn2c(-c3ccc(C(=O)NC4CC4)c(Cl)c3)cnc12 [Example 7-45, 4-(8-{[2-(acetylamino)ethyl]ami-no)imidazo[1,2-a]pyrazin-3-yl)-2-chloro-N-cyclopropylbenzamide] | 1750
27 | O=C(NC1CC1)c1ccc(-c2cnc3c(NCC4CC4)nccn23)cc1Cl [Example 7-46, 2-chloro-N-cyclopropyl-4-{8-[(cyclopropylmethyl)ami-no]imidazo[1,2-a]pyrazin-3-yl}benzamide] | 73.1
28 | O=C(NC1CC1)c1ccc(-c2cnc3c(NCc4ccccn4)nccn23)cc1Cl [Example 7-47, 2-chloro-N-cyclopropyl-4-{8-[(pyridin-2-ylmethyl)amino]imidazo[1,2-a]pyrazin-3-yl}benzamide] | 1190
29 | O=C(NC1CC1)c1ccc(-c2cnc3c(NCc4cccnc4)nccn23)cc1Cl [Example 7-48, 2-chloro-N-cyclopropyl-4-{8-[(pyridin-3-ylmethyl)amino]imidazo[1,2-a]pyrazin-3-yl}benzamide] | 513
